Source: PubChem BioAssay AID248 (DTP/NCI, 2004)
Values joined by “and” are separate entries in the source; they are usually repeats but may differ in a detail not shown here. Equal values may be shown once. Toxic doses and inconclusive results are not listed. No stated cut-off is given here; in the data, active means T/C of 150% or more; inactive means T/C below 125%.

Tested on: L1210 leukemia ip in BDF1 mice, survival T/C
Experiment: NCI In Vivo Anticancer Drug Screen. Data for tumor model L1210 Leukemia (intraperitoneal) in B6D2F1 (BDF1) mice
Settings: endpoint: mean survival time, higher = longer survival
Method in brief: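 Tumor was transplanted into mice, which were then dosed with test compound or vehicle alone. Survival was recorded for each group, and the treated figure was expressed relative to the control figure.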

[1] = dose: 100.0 mg/kg/injection, schedule: Q01DX009 (ip), vehicle: Klucel (hydroxypropylcellulose) (HPC)
[2] = dose: 100.0 mg/kg/injection, schedule: Q04DX003 (ip), vehicle: Klucel (hydroxypropylcellulose) (HPC)
[3] = dose: 200.0 mg/kg/injection, schedule: Q01DX009 (ip), vehicle: Klucel (hydroxypropylcellulose) (HPC)
[4] = dose: 200.0 mg/kg/injection, schedule: Q04DX003 (ip), vehicle: Klucel (hydroxypropylcellulose) (HPC)
[5] = dose: 400.0 mg/kg/injection, schedule: Q01DX009 (ip), vehicle: Klucel (hydroxypropylcellulose) (HPC)
[6] = dose: 400.0 mg/kg/injection, schedule: Q04DX003 (ip), vehicle: Klucel (hydroxypropylcellulose) (HPC)
[7] = dose: 25.0 mg/kg/injection, schedule: Q04DX003 (ip), vehicle: saline
[8] = dose: 50.0 mg/kg/injection, schedule: Q01DX009 (ip), vehicle: saline
[9] = dose: 100.0 mg/kg/injection, schedule: Q01DX009 (ip), vehicle: saline
[10] = dose: 100.0 mg/kg/injection, schedule: Q01DX009 (ip), vehicle: saline with Tween-80
[11] = dose: 200.0 mg/kg/injection, schedule: Q01DX009 (ip), vehicle: saline with Tween-80
[12] = dose: 200.0 mg/kg/injection, schedule: Q01DX009 (ip), vehicle: saline
[13] = dose: 400.0 mg/kg/injection, schedule: Q01DX009 (ip), vehicle: saline with Tween-80
[14] = dose: 100.0 mg/kg/injection, schedule: Q04DX003 (ip), vehicle: saline with Tween-80
[15] = dose: 200.0 mg/kg/injection, schedule: Q04DX003 (ip), vehicle: saline with Tween-80
[16] = dose: 400.0 mg/kg/injection, schedule: Q04DX003 (ip), vehicle: saline with Tween-80

Measured: T/C

Cc1cc2oc(/C=C(\C#N)c3ccc([N+](=O)[O-])cc3)c(C)c2cc1C
inactive: [1] 88 % of control | [2] 98 % of control | [3] 103 % of control | [4] 95 % of control | [5] 99 % of control | [6] 98 % of control

Cc1cc([N+](=O)[O-])cc([N+](=O)[O-])c1OC(=O)c1ccc(N=C(N)N)cc1
inactive: [7] 103 % of control | [8] 102 % of control | dose: 50.0 mg/kg/injection, schedule: Q04DX003 (ip), vehicle: saline 97 % of control | [9] 94 % of control and 91 % of control | dose: 100.0 mg/kg/injection, schedule: Q04DX003 (ip), vehicle: saline 96 % of control and 92 % of control

O=C1c2ccccc2C(=O)c2c(O)ccc(O)c21
inactive: [8] 94 % of control | [10] 106 % of control | [9] 102 % of control | [11] 101 % of control | [12] 102 % of control | [13] 101 % of control

O=C(O)/C(=C\CCCCC/C=C(\CCO)C(=O)O)CCO
inactive: [1] 100 % of control | [2] 98 % of control | [3] 96 % of control | [4] 100 % of control | [5] 99 % of control | [6] 91 % of control

Cc1ccc(COC(=O)c2ccccc2)cc1
inactive: [1] 101 % of control | [2] 103 % of control | [3] 98 % of control | [4] 97 % of control | [5] 95 % of control | [6] 97 % of control

COC(=O)N1C=CC2C=CC1C(C#N)(C#N)C2(C#N)C#N (stereo unspecified)
inactive: dose: 12.5 mg/kg/injection, schedule: Q04DX002 (ip), vehicle: Klucel (hydroxypropylcellulose) (HPC) 98 % of control | dose: 25.0 mg/kg/injection, schedule: Q04DX002 (ip), vehicle: Klucel (hydroxypropylcellulose) (HPC) 98 % of control | dose: 50.0 mg/kg/injection, schedule: Q04DX002 (ip), vehicle: Klucel (hydroxypropylcellulose) (HPC) 110 % of control

OC(Br)C1C(c2ccccc2)N1C1CCCCC1 (stereo unspecified)
inactive: [2] 98 % of control | [4] 91 % of control | [6] 93 % of control

COc1ccc2c(c1)CCN(C1=C(C)C(=O)CC1)C2CC(=O)O (stereo unspecified)
inactive: dose: 100.0 mg/kg/injection, schedule: Q01DX001 (ip), vehicle: saline 104 % of control | dose: 200.0 mg/kg/injection, schedule: Q01DX001 (ip), vehicle: saline 101 % of control | dose: 400.0 mg/kg/injection, schedule: Q01DX001 (ip), vehicle: saline 90 % of control

COc1ccc(NC(=O)NCc2ccccc2Cl)c(OC)c1
inactive: [1] 102 % of control | [3] 96 % of control | [5] 98 % of control

c1ccc(C2CCCCCC2)cc1
inactive: [9] 104 % of control | [12] 95 % of control | dose: 400.0 mg/kg/injection, schedule: Q01DX009 (ip), vehicle: saline 90 % of control

COc1ccc(Cl)cc1NC(=O)Oc1ccc(SC)c(C)c1
inactive: dose: 100.0 mg/kg/injection, schedule: Q01DX001 (ip), vehicle: saline with Tween-80 95 % of control | [10] 95 % of control | dose: 100.0 mg/kg/injection, schedule: Q04DX002 (ip), vehicle: saline with Tween-80 97 % of control and 98 % of control | dose: 200.0 mg/kg/injection, schedule: Q01DX001 (ip), vehicle: saline with Tween-80 91 % of control | [11] 98 % of control | dose: 200.0 mg/kg/injection, schedule: Q04DX002 (ip), vehicle: saline with Tween-80 98 % of control and 89 % of control | dose: 400.0 mg/kg/injection, schedule: Q01DX001 (ip), vehicle: saline with Tween-80 91 % of control | [13] 90 % of control | dose: 400.0 mg/kg/injection, schedule: Q04DX002 (ip), vehicle: saline with Tween-80 92 % of control and 98 % of control

O=C(O)CCNC(=O)c1ccccc1
inactive: dose: 87.5 mg/kg/injection, schedule: Q04DX003 (ip), vehicle: saline 97 % of control | dose: 175.0 mg/kg/injection, schedule: Q04DX003 (ip), vehicle: saline 98 % of control | dose: 350.0 mg/kg/injection, schedule: Q04DX003 (ip), vehicle: saline 93 % of control

CC(C)=CCC/C(C)=C/CN1C(=O)C=CC1=O
inactive: dose: 12.5 mg/kg/injection, schedule: Q01DX009 (ip), vehicle: water 91 % of control | dose: 25.0 mg/kg/injection, schedule: Q01DX009 (ip), vehicle: water 86 % of control | dose: 25.0 mg/kg/injection, schedule: Q04DX003 (ip), vehicle: water 97 % of control | dose: 50.0 mg/kg/injection, schedule: Q04DX003 (ip), vehicle: water 98 % of control | dose: 100.0 mg/kg/injection, schedule: Q04DX003 (ip), vehicle: water 104 % of control

COC(=O)c1ccc(OC(=O)Nc2ccc(Br)cc2)cc1
inactive: [1] 102 % of control | [3] 92 % of control | [5] 92 % of control

NC(=O)OCCOC(N)=O
inactive: [14] 97 % of control | [15] 95 % of control | [16] 95 % of control

CN(C)NCCN1CCN(CCCN2c3ccccc3Sc3ccc(C(F)(F)F)cc32)CC1
inactive: dose: 6.25 mg/kg/injection, schedule: Q01DX009 (ip), vehicle: saline 116 % of control | dose: 12.5 mg/kg/injection, schedule: Q01DX009 (ip), vehicle: saline 89 % of control | dose: 12.5 mg/kg/injection, schedule: Q04DX003 (ip), vehicle: saline 101 % of control | dose: 25.0 mg/kg/injection, schedule: Q01DX009 (ip), vehicle: saline 107 % of control | [7] 104 % of control

CC(C)=CCCOC(N)=O
inactive: [14] 104 % of control | [15] 102 % of control | [16] 98 % of control

CC1CCCC(CN=Cc2ccc(O)cc2O)[N-]1.CC1CCCC(CN=Cc2ccc(O)cc2O)[N-]1.[Ni+2] (stereo unspecified)
inactive: dose: 25.0 mg/kg/injection, schedule: Q04DX003 (ip), vehicle: saline with Tween-80 101 % of control | dose: 50.0 mg/kg/injection, schedule: Q04DX003 (ip), vehicle: saline with Tween-80 103 % of control | [14] 98 % of control

O=[N+]([O-])c1ccc(-c2nc3c(o2)CCC3)cc1
inactive: [14] 98 % of control | [15] 105 % of control | [16] 96 % of control

O=[N+]([O-])/C=C/c1c(Cl)cccc1Cl
inactive: dose: 6.25 mg/kg/injection, schedule: Q01DX005 (ip), vehicle: other 108 % of control | dose: 12.5 mg/kg/injection, schedule: Q01DX005 (ip), vehicle: other 106 % of control | dose: 25.0 mg/kg/injection, schedule: Q01DX005 (ip), vehicle: other 93 % of control | dose: 50.0 mg/kg/injection, schedule: Q01DX005 (ip), vehicle: saline with Tween-80 101 % of control | dose: 50.0 mg/kg/injection, schedule: Q01DX009 (ip), vehicle: Klucel (hydroxypropylcellulose) (HPC) 95 % of control | [1] 93 % of control | [2] 94 % of control | [4] 100 % of control | [6] 103 % of control

CCOC(=Nc1ccccc1)c1ccccc1
inactive: [1] 104 % of control | [3] 100 % of control | [5] 102 % of control

COC12CC3C4=CCOC5CC(=O)N6c7ccccc7C1(CCN2C4)C6C53 (stereo unspecified)
inactive: dose: 5.0 mg/kg/injection, schedule: Q01DX001 (ip), vehicle: saline 97 % of control | dose: 10.0 mg/kg/injection, schedule: Q01DX001 (ip), vehicle: saline 97 % of control | dose: 20.0 mg/kg/injection, schedule: Q01DX001 (ip), vehicle: saline 101 % of control
